# Experimental data: US20180243298A1, “TRPV3 MODULATORS” (AbbVie Inc., priority 2015, published 2018)
# Target: T1, human TRPV3 (Homo sapiens, UniProt Q8NET8)
# T1 construct: expressed in transfected cells; host or cells: HEK293
# T1 sequence (Q8NET8 1-790): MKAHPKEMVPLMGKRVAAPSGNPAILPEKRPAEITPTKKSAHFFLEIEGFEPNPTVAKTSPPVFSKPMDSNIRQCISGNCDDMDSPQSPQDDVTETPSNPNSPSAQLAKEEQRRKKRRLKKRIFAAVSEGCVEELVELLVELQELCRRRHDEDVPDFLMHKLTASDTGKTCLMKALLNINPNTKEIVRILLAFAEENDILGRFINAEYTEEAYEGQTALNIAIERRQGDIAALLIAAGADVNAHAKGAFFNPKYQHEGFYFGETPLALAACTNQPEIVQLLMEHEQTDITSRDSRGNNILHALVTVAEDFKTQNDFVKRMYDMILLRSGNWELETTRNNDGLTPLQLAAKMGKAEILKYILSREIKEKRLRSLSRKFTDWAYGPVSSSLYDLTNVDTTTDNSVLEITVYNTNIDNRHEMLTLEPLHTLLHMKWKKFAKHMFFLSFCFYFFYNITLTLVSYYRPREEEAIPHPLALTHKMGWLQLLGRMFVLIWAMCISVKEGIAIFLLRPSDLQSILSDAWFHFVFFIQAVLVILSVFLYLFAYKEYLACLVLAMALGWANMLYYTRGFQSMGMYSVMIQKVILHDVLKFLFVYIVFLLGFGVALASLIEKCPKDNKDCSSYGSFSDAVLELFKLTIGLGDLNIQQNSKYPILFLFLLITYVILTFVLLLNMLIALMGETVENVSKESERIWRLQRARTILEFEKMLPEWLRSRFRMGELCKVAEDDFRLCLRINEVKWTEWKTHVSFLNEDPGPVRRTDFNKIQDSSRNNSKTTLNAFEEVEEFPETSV
# Assay: Calcium flux assay (FLIPR TETRA), recombinant HEK293 cells expressing TRPV3, 2-APB response
# Assay type: cell-based
# Conditions: 2-APB at its EC80
# Procedure: (i) In Vitro Methods-Calcium Flux Assays:
# Experiments were conducted using the FLIPR TETRA®. On the day prior to the experiment, recombinant HEK293 cells that stably express human and mouse TRPV3 were removed from tissue culture flasks and plated in growth medium at 20,000 cells/well into black-walled clear-bottom 384-well BIOCOAT™ poly-D-lysine assay plates (BD Biosciences, Bedford, Mass.) using a MULTIDROP® dispenser (ThermoScientific, Waltham, Mass.). On the day of the experiment, growth medium was removed, and the no-wash FLIPR® Calcium-4 dye (λEX=470-495 nm, λEM=515-575 nm; Molecular Devices, Sunnyvale, Calif.) was added to each well using the MULTIDROP® dispenser. Cells were incubated for 90-120 minutes in the dark. The compounds were dissolved in DMSO to prepare a 10 mM stock solution. The intensity of the fluorescence was captured and digitally transferred to an interfaced PC. The peak increase in fluorescence over baseline, measured in relative fluorescence units, was calculated and expressed as the percentage of the maximal 2-APB (2-aminoethoxyldiphenyl borate) response (in the absence of compound). The concentration of 2-APB corresponds to its EC80.
row,Structure (SMILES),IC50 [nM]
1,"COc1ncnc(OC)c1C(=O)Nc1nc(C(F)(F)F)c(-c2ccncc2C#N)s1 [Example 24, N-[5-(3-cyanopyridin-4-yl)-4-(trifluoromethyl)-1,3-thiazol-2-yl]-4,6-dimethoxypyrimidine-5-carboxamide]",100 to 500
2,"COc1ncnc(OC)c1C(=O)Nc1nc(C(F)(F)F)c(-c2cnccn2)s1 [Example 28, 4,6-dimethoxy-N-[5-(pyrazin-2-yl)-4-(trifluoromethyl)-1,3-thiazol-2-yl]pyrimidine-5-carboxamide]",500 to 1000
3,"COc1ncnc(OC)c1C(=O)Nc1nc(C(F)(F)F)c(-c2cnc(N3CCOCC3)cn2)s1 [Example 29, 4,6-dimethoxy-N-{5-[5-(morpholin-4-yl)pyrazin-2-yl]-4-(trifluoromethyl)-1,3-thiazol-2-yl}pyrimidine-5-carboxamide]",500 to 1000
4,"COc1ncnc(OC)c1C(=O)Nc1nc(C(F)(F)F)c(N2CCOCC2)s1 [Example 32, 4,6-dimethoxy-N-[5-(morpholin-4-yl)-4-(trifluoromethyl)-1,3-thiazol-2-yl]pyrimidine-5-carboxamide]",100 to 500
5,"COc1ncnc(OC)c1C(=O)Nc1nc(C(F)(F)F)c(C2COC(C)(C)O2)s1 (centres unmarked) [Example 35, N-[5-(2,2-dimethyl-1,3-dioxolan-4-yl)-4-(trifluoromethyl)-1,3-thiazol-2-yl]-4,6-dimethoxypyrimidine-5-carboxamide]",100 to 500
6,"COc1ncnc(OC)c1C(=O)Nc1nc(C(F)(F)F)c(-c2c[nH]c3cc(C#N)ccc23)s1 [Example 44, N-[5-(6-cyano-1H-indol-3-yl)-4-(trifluoromethyl)-1,3-thiazol-2-yl]-4,6-dimethoxypyrimidine-5-carboxamide]",100 to 500
7,"COc1ncnc(OC)c1C(=O)Nc1nc(C(F)(F)F)c(-c2ccccn2)s1 [Example 45, 4,6-dimethoxy-N-[5-(pyridin-2-yl)-4-(trifluoromethyl)-1,3-thiazol-2-yl]pyrimidine-5-carboxamide]",100 to 500
8,"COc1ncnc(OC)c1C(=O)Nc1nc(C(F)(F)F)c(C=O)s1 [Example 47, N-[5-formyl-4-(trifluoromethyl)-1,3-thiazol-2-yl]-4,6-dimethoxypyrimidine-5-carboxamide]",> 1000
9,"COc1ncnc(OC)c1C(=O)Nc1nc(C(F)(F)F)c(CN2CCCC2)s1 [Example 49, 4,6-dimethoxy-N-[5-(pyrrolidin-1-ylmethyl)-4-(trifluoromethyl)-1,3-thiazol-2-yl]pyrimidine-5-carboxamide]",500 to 1000
10,"COc1ncnc(OC)c1C(=O)Nc1nc(C(F)(F)F)c(CN2CCOCC2)s1 [Example 50, 4,6-dimethoxy-N-[5-(morpholin-4-ylmethyl)-4-(trifluoromethyl)-1,3-thiazol-2-yl]pyrimidine-5-carboxamide]",> 1000
11,"COc1ncnc(OC)c1C(=O)Nc1nc(C(F)(F)F)c(CNC2CCCC2)s1 [Example 51, N-{5-[(cyclopentylamino)methyl]-4-(trifluoromethyl)-1,3-thiazol-2-yl}-4,6-dimethoxypyrimidine-5-carboxamide]",100 to 500
12,"COc1ncnc(OC)c1C(=O)Nc1nc(C(F)(F)F)c(CN(C)C(C)(C)C)s1 [Example 55, N-[5-{[tert-butyl(methyl)amino]methyl}-4-(trifluoromethyl)-1,3-thiazol-2-yl]-4,6-dimethoxypyrimidine-5-carboxamide]",100 to 500
13,"COc1ncnc(OC)c1C(=O)Nc1nc(C(F)(F)F)c(CNC(C)(C)C)s1 [Example 56, N-{5-[(tert-butylamino)methyl]-4-(trifluoromethyl)-1,3-thiazol-2-yl}-4,6-dimethoxypyrimidine-5-carboxamide]",> 1000
14,"COc1ncnc(OC)c1C(=O)Nc1nc(C(F)(F)F)c(CN2CC[C@H](F)C2)s1 [Example 57, N-[5-{[(3 S)-3-fluoropyrrolidin-1-yl]methyl}-4-(trifluoromethyl)-1,3-thiazol-2-yl]-4,6-dimethoxypyrimidine-5-carboxamide]",100 to 500
15,"COc1ncnc(OC)c1C(=O)Nc1nc(C(F)(F)F)c(CN2CC[C@H](OC)C2)s1 [Example 59, 4,6-dimethoxy-N-[5-{[(3S)-3-methoxypyrrolidin-1-yl]methyl}-4-(trifluoromethyl)-1,3-thiazol-2-yl]pyrimidine-5-carboxamide]",500 to 1000
16,"COc1ncnc(OC)c1C(=O)Nc1nc(C(F)(F)F)c(CN2CC[C@@H](OC)C2)s1 [Example 60, 4,6-dimethoxy-N-[5-{[(3R)-3-methoxypyrrolidin-1-yl]methyl}-4-(trifluoromethyl)-1,3-thiazol-2-yl]pyrimidine-5-carboxamide]",500 to 1000
17,"COc1ncnc(OC)c1C(=O)Nc1nc(C(F)(F)F)c(CN2CCC3(CC2)COC3)s1 [Example 61, 4,6-dimethoxy-N-[5-(2-oxa-7-azaspiro[3.5]non-7-ylmethyl)-4-(trifluoromethyl)-1,3-thiazol-2-yl]pyrimidine-5-carboxamide]",100 to 500
18,"COc1ncnc(OC)c1C(=O)Nc1nc(C(F)(F)F)c(CN2CCCC3(COC3)C2)s1 [Example 62, 4,6-dimethoxy-N-[5-(2-oxa-6-azaspiro[3.5]non-6-ylmethyl)-4-(trifluoromethyl)-1,3-thiazol-2-yl]pyrimidine-5-carboxamide]",50 to 100

# The next lines start with the values.
row,IC50 [nM],Structure (SMILES)
1,< 50,"COc1ncnc(OC)c1C(=O)Nc1nc(C(F)(F)F)c(-c2cccc(F)c2C#N)s1 [Example 25, N-[5-(2-cyano-3-fluorophenyl)-4-(trifluoromethyl)-1,3-thiazol-2-yl]-4,6-dimethoxypyrimidine-5-carboxamide]"
2,50 to 100,"CCc1sc(NC(=O)c2c(OC)ncnc2OC)nc1-c1ccccc1 [Example 26, N-(5-ethyl-4-phenyl-1,3-thiazol-2-yl)-4,6-dimethoxypyrimidine-5-carboxamide]"
3,< 50,"COc1ncnc(OC)c1C(=O)Nc1nc(C(F)(F)F)c(-c2cccc(C(F)(F)F)n2)s1 [Example 30, 4,6-dimethoxy-N-{4-(trifluoromethyl)-5-[6-(trifluoromethyl)pyridin-2-yl]-1,3-thiazol-2-yl}pyrimidine-5-carboxamide]"
4,< 50,"CCCc1sc(NC(=O)c2c(OC)ncnc2OC)nc1C(F)(F)F [Example 34, 4,6-dimethoxy-N-[5-propyl-4-(trifluoromethyl)-1,3-thiazol-2-yl]pyrimidine-5-carboxamide]"
5,50 to 100,"COc1ncnc(OC)c1C(=O)Nc1nc(C(F)(F)F)c(-c2cnc(N3CCOCC3)nc2)s1 [Example 36, 4,6-dimethoxy-N-{5-[2-(morpholin-4-yl)pyrimidin-5-yl]-4-(trifluoromethyl)-1,3-thiazol-2-yl}pyrimidine-5-carboxamide]"
6,< 50,"COc1ncnc(OC)c1C(=O)Nc1nc(C(F)(F)F)c(C2CC2)s1 [Example 37, N-[5-cyclopropyl-4-(trifluoromethyl)-1,3-thiazol-2-yl]-4,6-dimethoxypyrimidine-5-carboxamide]"
7,< 50,"COc1ncnc(OC)c1C(=O)Nc1nc(C(F)(F)F)c(C2=CCOCC2)s1 [Example 38, N-[5-(3,6-dihydro-2H-pyran-4-yl)-4-(trifluoromethyl)-1,3-thiazol-2-yl]-4,6-dimethoxypyrimidine-5-carboxamide]"
8,50 to 100,"COc1ncnc(OC)c1C(=O)Nc1nc(C(F)(F)F)c(C2CCOCC2)s1 [Example 39, 4,6-dimethoxy-N-[5-(tetrahydro-2H-pyran-4-yl)-4-(trifluoromethyl)-1,3-thiazol-2-yl]pyrimidine-5-carboxamide]"
9,< 50,"COc1cc(C#N)ccc1-c1sc(NC(=O)c2c(OC)ncnc2OC)nc1C(F)(F)F [Example 43, N-[5-(4-cyano-2-methoxyphenyl)-4-(trifluoromethyl)-1,3-thiazol-2-yl]-4,6-dimethoxypyrimidine-5-carboxamide]"
10,< 50,"COc1ncnc(OC)c1C(=O)Nc1nc(C(F)(F)F)c(-c2ccc(Cl)cn2)s1 [Example 46, N-[5-(5-chloropyridin-2-yl)-4-(trifluoromethyl)-1,3-thiazol-2-yl]-4,6-dimethoxypyrimidine-5-carboxamide]"
11,< 50,"COc1ncnc(OC)c1C(=O)Nc1nc(C(F)(F)F)c(CN(C)CC(C)C)s1 [Example 54, 4,6-dimethoxy-N-[5-{[methyl(2-methylpropyl)amino]methyl}-4-(trifluoromethyl)-1,3-thiazol-2-yl]pyrimidine-5-carboxamide]"
